Measured values as given in patent US10369122B2, “Benzene-1,3,5-tricarboxamide derivatives and uses thereof” (OHIO STATE INNOVATION FOUNDATION, priority 2015, dated 2019).

Test system: Hep3B cells
Test: TT LLNs-mediated luciferase transfection assay
Format: cell-based, human
Conditions: for K1 (average luminescence intensity, Kn = ΣRLIn/4): level 1 of the component; for K2 (average luminescence intensity, Kn = ΣRLIn/4): level 2 of the component; for K3 (average luminescence intensity, Kn = ΣRLIn/4): level 3 of the component; for K4 (average luminescence intensity, Kn = ΣRLIn/4): level 4 of the component
Description: R. et. al. J. Am. Chem. Soc. 2011, 133, 8995-9004). After formulation, the freshly formed […] were used immediately for cell transfection. For in vivo studies, the freshly prepared LLNs were then dialyzed against PBS buffer using Slide-A-Lyzer dialysis cassettes (3.5 K MWCO, Life Technologies, Grand island, N.Y.). […] Entrapment efficiency of LLNs was determined using the Ribogreen assay reported previously (Love Kevin, T. et. al. Proc. Natl. Acad. Sci. […] Chen, D. et. al. J. Am. Chem. Soc. 2012, 134, 6948-6951). TT LLNs-Mediated Luciferase Transfection Assay. The human hepatocellular carcinoma cell line Hep3B was purchased from American Type Culture Collection (Manassas, Va.) and maintained at 37° C. with 5% CO2 in Eagle's Minimum Essential Medium (MEM) supplemented with 10% heat inactivated FBS. […] Transfections were performed in triplicate. After 6 h of transfection, culture medium containing TT LLNs was carefully removed, and 50 μL of serum-free EMEM and 50 μL of Bright-Glo luciferase substrate were mixed and added to each well. […] Free Flue mRNA served as a negative control. Orthogonal Array Experimental Design. In order to identify a preferred molar ratio of the formulation components, an orthogonal array experiment design was utilized. Four formulation components were assigned in the following orthogonal experiments with a fixed TT/mRNA ratio (10/1). TT3S-DOPE LLNs 1-1 to 1-16 were prepared according to the orthogonal array design table L16(4)^4 and used to transfect Hep3B cells (Table 2). […] On the basis of the result of the first round of nanoparticle formulation, the levels of each factor were further refined, and the second round orthogonal experiment with 16 formulations TT3-DOPE LLNs 2-1 to 2-16 was conducted (Table 4). A similar analysis was performed as described above.

| Compound | ΔK = Kmax − Kmin (impact of the component on mRNA delivery) (first round of TT3-DOPE LLNs) | K1 (average luminescence intensity, Kn = ΣRLIn/4) (first round of TT3-DOPE LLNs) | K2 (average luminescence intensity, Kn = ΣRLIn/4) (first round of TT3-DOPE LLNs) | K3 (average luminescence intensity, Kn = ΣRLIn/4) (first round of TT3-DOPE LLNs) | K4 (average luminescence intensity, Kn = ΣRLIn/4) (first round of TT3-DOPE LLNs) | ΔK = Kmax − Kmin (impact of the component on mRNA delivery) (second round of TT3-DOPE LLNs) | K1 (average luminescence intensity, Kn = ΣRLIn/4) (second round of TT3-DOPE LLNs) | K2 (average luminescence intensity, Kn = ΣRLIn/4) (second round of TT3-DOPE LLNs) | K3 (average luminescence intensity, Kn = ΣRLIn/4) (second round of TT3-DOPE LLNs) | K4 (average luminescence intensity, Kn = ΣRLIn/4) (second round of TT3-DOPE LLNs) |
| --- | --- | --- | --- | --- | --- | --- | --- | --- | --- | --- |
| 1,2-dimyristoyl-sn-glycerol, methoxypolyethylene glycol-2000 [DMG-PEG2000] | 1121 | 1295 | 407 | 424 | 174 | 43788 | 56896 | 56833 | 42863 | 13109 |
| CCCCCCCC/C=C\CCCCCCCC(=O)OC[C@H](COP(=O)(O)OCCN)OC(=O)CCCCCCC/C=C\CCCCCCCC [DOPE, 1,2-dioleoyl-sn-glycero-3-phosphoethanolamine] | 1231 | 325 | 369 | 188 | 1419 | 19529 | 33465 | 38426 | 52995 | 44816 |
| CC(C)CCC[C@@H](C)[C@H]1CC[C@H]2[C@@H]3CC=C4C[C@@H](O)CC[C@]4(C)[C@H]3CC[C@]12C [Cholesterol, cholesterol] | 1121 | 108 | 1229 | 428 | 535 | 18025 | 29028 | 35974 | 47647 | 57052 |
